Assay [1] deals with Proteasome. Put plainly: Inhibition of chymotrypsin-like activity of 20S proteasome. In kind it is subcellular.
In assay [2] the target is T1, Calpain 1 (Homo sapiens, UniProt P04632+P07384).
T1 sequence (P04632 whole entry): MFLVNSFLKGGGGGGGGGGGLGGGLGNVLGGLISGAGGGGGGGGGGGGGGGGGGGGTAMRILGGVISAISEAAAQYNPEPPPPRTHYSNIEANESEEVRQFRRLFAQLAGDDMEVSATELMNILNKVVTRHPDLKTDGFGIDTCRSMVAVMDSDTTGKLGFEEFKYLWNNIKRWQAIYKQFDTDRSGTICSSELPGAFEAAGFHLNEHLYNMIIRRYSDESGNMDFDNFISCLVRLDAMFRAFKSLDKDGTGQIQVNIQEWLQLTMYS
T1 sequence (P07384 whole entry): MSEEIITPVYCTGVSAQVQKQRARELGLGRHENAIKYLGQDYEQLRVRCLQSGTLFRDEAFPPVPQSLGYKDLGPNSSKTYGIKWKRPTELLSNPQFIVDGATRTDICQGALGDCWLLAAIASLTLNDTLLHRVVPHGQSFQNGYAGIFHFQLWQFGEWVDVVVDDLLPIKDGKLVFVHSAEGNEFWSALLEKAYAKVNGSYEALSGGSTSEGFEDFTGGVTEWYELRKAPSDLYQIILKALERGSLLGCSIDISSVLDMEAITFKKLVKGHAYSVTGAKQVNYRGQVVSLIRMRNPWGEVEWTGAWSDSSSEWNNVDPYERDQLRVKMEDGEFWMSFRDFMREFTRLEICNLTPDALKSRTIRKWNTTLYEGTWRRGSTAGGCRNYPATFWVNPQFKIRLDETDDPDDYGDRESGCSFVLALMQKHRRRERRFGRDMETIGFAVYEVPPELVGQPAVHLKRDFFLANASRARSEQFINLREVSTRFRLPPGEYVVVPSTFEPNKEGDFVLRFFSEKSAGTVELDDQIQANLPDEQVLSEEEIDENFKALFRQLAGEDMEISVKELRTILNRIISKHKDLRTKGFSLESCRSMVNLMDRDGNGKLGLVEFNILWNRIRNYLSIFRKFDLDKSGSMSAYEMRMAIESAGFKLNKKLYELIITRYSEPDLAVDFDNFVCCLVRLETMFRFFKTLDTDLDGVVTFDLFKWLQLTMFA
Put plainly: Inhibitory activity against calpain I; no inhibition was observed. In kind it is protein-complex assay.

Assay [3] deals with RAW. Briefly: Antiproliferative activity against murine macrophage (RAW) cell line. The format is functional, cell-based. Conditions: Mus musculus.
The test system of assay [4] is Proteasome. Put plainly: Inhibition of chymotrypsin-like activity of 20S proteasome; value ranges from 10-20 uM. In kind it is subcellular.
The target of assay [5] is Calpain 1 (Homo sapiens, UniProt P07384). Briefly: Inhibitory activity against Calpain I. In kind it is protein-complex assay.

Where a SMILES comes first, the peptide text is derived from it. [ ]: non-standard residue; d: D form. Nle = CCCC[C@H](N)C(=O)O

By IC50 is commonly meant the concentration that inhibits the measured activity by half. A high value points to weaker potency.

Turning to `COc1ccc2c(c1)C(CC(=O)N[C@@H](CC(C)C)C(=O)N[C@H](CC(C)C)C(=O)NCc1ccc([N+](=O)[O-])cc1)CC2=O` (some centres undefined), the IC50 in assay [1] was more than 17 µM; in assay [2] it was “No inhibition”.

Turning to `COc1ccc2c(c1)C(CC(=O)N[C@@H](CC(C)C)C(=O)N[C@H](CC(C)C)C(=O)N(C)Cc1ccccc1)CC2=O` (some centres undefined), the results for the 50% inhibitory concentration (IC50) in assay [1] and in assay [2] were more than 18 µM and “No inhibition”, respectively.

Take `COc1ccc2c(c1)C(CC(=O)N[C@H](CC(C)C)C(=O)N[C@H](CC(C)C)C(=O)NCC(N)=O)CC2=O` (some centres undefined): the figures for the half-maximal inhibitory concentration (IC50) in assay [1] and in assay [2] were more than 20 µM and “No inhibition”, respectively.

For the molecule `COc1ccc2c(c1)C(CC(=O)N[C@@H](CC(C)C)C(=O)N[C@@H](CC(C)C)C(N)=O)CC2=O` (some centres undefined), the IC50 in assay [1] is more than 20 µM; in assay [2], “No inhibition”.

Regarding `COc1ccc2c(c1)C(CC(=O)N[C@@H](C(=O)N[C@H](CC(C)C)C(N)=O)C(C)C)CC2=O` (some centres undefined), the IC50 in assay [1] is more than 20 µM; in assay [2], “No inhibition”.

Consider `COc1ccc2c(c1)C(CC(=O)N[C@@H](CC(C)C)C(=O)N[C@H](CC(C)C)C(=O)NC1CCc3ccccc31)CC2=O` (some centres undefined), for which the IC50 is 0.89 µM in assay [1] and “No inhibition” in assay [2].

In the case of `COc1ccc2c(c1)C(CC(=O)N[C@@H](CC(C)C)C(=O)N[C@H](CC(C)C)C(=O)NCc1ccco1)CC2=O` (some centres undefined), the results for the IC50 in assay [1] and in assay [2] were 1.9 µM and “No inhibition”, respectively.

As to `COc1ccc2c(c1)C(CC(=O)N[C@@H](CC(C)C)C(=O)N[C@@H](CC(C)C)C(=O)NCC(N)=O)CC2=O` (some centres undefined), the results for the 50% inhibitory concentration (IC50) in assay [1] and in assay [2] were more than 20 µM and “No inhibition”, respectively.

For the molecule `COc1ccc2c(c1)C(CC(=O)N[C@H](CC(C)C)C(=O)N[C@H](CC(C)C)C(N)=O)CC2=O` (some centres undefined), the IC50 in assay [1] was 2.2 µM; in assay [2] it was “No inhibition”.

On to `COc1ccc2c(c1)C(CC(=O)N[C@@H](CC(C)C)C(=O)N[C@H](CC(C)C)C(=O)N1CCCCC1)CC2=O` (some centres undefined), for which the values for the IC50 in assay [1] and in assay [2] were more than 20 µM and “No inhibition”, respectively.

`COc1ccc2c(c1)C(CC(=O)N[C@@H](CC(C)C)C(=O)N[C@H](CC(C)C)C(=O)Nc1ccccc1)CC2=O` (some centres undefined): the IC50 in assay [1] was more than 19 µM; in assay [2], “No inhibition”.

As for `COc1ccc2c(c1)C(CC(=O)N[C@@H](CC(C)C)C(=O)N[C@H](CC(C)C)C(=O)NCc1ccccc1)CC2=O` (some centres undefined), the IC50 was 0.93 µM in assay [1], “No inhibition” in assay [2] and 7 µM in assay [3].

With `COc1ccc2c(c1)C(CC(=O)N[C@H](CC(C)C)C(=O)N[C@@H](CC(C)C)C(=O)NCC(N)=O)CC2=O` (some centres undefined), the IC50 in assay [4] is 10 µM; in assay [2] it was “No inhibition”.

As for `COc1ccc2c(c1)C(CC(=O)N[C@H](CC(C)C)C(=O)N[C@@H](C(N)=O)C(C)C)CC2=O` (some centres undefined), the IC50 in assay [1] was more than 20 µM; in assay [2] it was “No inhibition”.

With `COc1ccc2c(c1)C(CC(=O)N[C@@H](CC(C)C)C(=O)N[C@H](CC(C)C)C(=O)NC1C3CC4CC(C3)CC1C4)CC2=O` (some centres undefined), the 50% inhibitory concentration (IC50) was more than 18 µM in assay [1] and “No inhibition” in assay [2].

Take `COc1ccc2c(c1)C(CC(=O)N[C@@H](CC(C)C)C(=O)N[C@H](CC(C)C)C(=O)NCc1ccc3c(c1)OCO3)CC2=O` (some centres undefined): the IC50 in assay [1] is 0.34 µM; in assay [2], “No inhibition”.

For `COc1ccc2c(c1)C(CC(=O)N[C@H](CC(C)C)C(=O)N[C@@H](CC(C)C)C(N)=O)CC2=O` (some centres undefined), the IC50 in assay [1] was more than 20 µM; in assay [2], “No inhibition”.

On to `COc1ccc2c(c1)C(CC(=O)N[C@@H](CC(C)C)C(=O)N[C@H](CC(C)C)C(=O)NCc1c(F)c(F)c(F)c(F)c1F)CC2=O` (some centres undefined), for which the values for the IC50 in assay [1] and in assay [2] were more than 16 µM and “No inhibition”, respectively.

As for `CCC[C@H](NC(=O)CC1CC(=O)c2ccc(OC)cc21)C(=O)N[C@H](CC(C)C)C(=O)NCC(N)=O` (some centres undefined), the IC50 in assay [1] was more than 20 µM; in assay [2], “No inhibition”.

Turning to `COc1ccc2c(c1)C(CC(=O)N[C@@H](CC(C)C)C(=O)N[C@H](CC(C)C)C(=O)NCC1CCCCC1)CC2=O` (some centres undefined), the IC50 was more than 18 µM in assay [1] and “No inhibition” in assay [2].

`COc1ccc2c(c1)C(CC(=O)N[C@@H](CC(C)C)C(=O)N[C@H](CC(C)C)C(=O)NCCO)CC2=O` (some centres undefined): the IC50 in assay [1] was more than 20 µM; in assay [2] it was “No inhibition”.

`COc1ccc2c(c1)C(CC(=O)N[C@@H](CC(C)C)C(=O)N[C@H](CC(C)C)C(=O)NCC(N)=O)CC2=O` (some centres undefined): the IC50 in assay [1] was 0.2 µM; in assay [2], “No inhibition”.

In the case of `COc1ccc2c(c1)C(CC(=O)N[C@@H](CC(C)C)C(=O)N[C@H](CC(C)C)C(=O)N1CCCC1)CC2=O` (some centres undefined), the IC50 in assay [1] was more than 20 µM; in assay [2], “No inhibition”.

In the case of `COc1ccc2c(c1)C(CC(=O)N[C@@H](CC(C)C)C(=O)N[C@H](CC(C)C)C(=O)N1CCOCC1)CC2=O` (some centres undefined), the IC50 was more than 20 µM in assay [1] and “No inhibition” in assay [2].

With `COc1ccc2c(c1)C(CC(=O)N[C@@H](CC(C)C)C(=O)N[C@H](CC(C)C)C(N)=O)CC2=O` (some centres undefined), the results for the concentration for half-maximal inhibition (IC50) in assay [1] and in assay [2] were more than 20 µM and “No inhibition”, respectively.

With `COc1ccc2c(c1)C(CC(=O)N[C@@H](CC(C)C)C(=O)N[C@H](CC(C)C)C(=O)NCc1occ3ccccc13)CC2=O` (some centres undefined), the IC50 in assay [1] was 8.7 µM; in assay [2], “No inhibition”.

As to `COc1ccc2c(c1)C(CC(=O)N[C@@H](CC(C)C)C(=O)N[C@H](CC(C)C)C(=O)NCc1c(F)cccc1F)CC2=O` (some centres undefined), the figures for the IC50 in assay [1], in assay [2] and in assay [3] were 0.14 µM, “No inhibition” and 8 µM, respectively.

On to `COc1ccc2c(c1)C(CC(=O)N[C@@H](CC(C)C)C(=O)N[C@H](CC(C)C)C(=O)NCc1ccc(OCc3ccccc3)cc1)CC2=O` (some centres undefined), for which the IC50 in assay [1] was 16 µM; in assay [2] it was “No inhibition”.

Consider `COc1ccc2c(c1)C(CC(=O)N[C@H](Cc1ccccc1)C(=O)N[C@H](CC(C)C)C(N)=O)CC2=O` (some centres undefined), for which the IC50 in assay [1] is more than 20 µM; in assay [2] it was “No inhibition”.

Consider `COc1ccc2c(c1)C(CC(=O)N[C@@H](CC(C)C)C(=O)N[C@H](CC(C)C)C(=O)NCCc1ccccc1)CC2=O` (some centres undefined), for which the IC50 in assay [1] is more than 18 µM; in assay [2] it was “No inhibition”.

On to `COc1ccc2c(c1)C(CC(=O)N[C@@H](CC(C)C)C(=O)N[C@H](CC(C)C)C(=O)NC(C)C)CC2=O` (some centres undefined), for which the half-maximal inhibitory concentration (IC50) is more than 20 µM in assay [1] and “No inhibition” in assay [2].

For the molecule `COc1ccc2c(c1)C(CC(=O)N[C@@H](CC(C)C)C(=O)N[C@H](CC(C)C)C(=O)NCc1ccccc1-c1ccccc1)CC2=O` (some centres undefined), the half-maximal inhibitory concentration (IC50) in assay [1] is more than 16 µM; in assay [2], “No inhibition”.

On to `COc1ccc2c(c1)C(CC(=O)N[C@@H](CC(C)C)C(=O)N[C@H](CC(C)C)C(=O)NCc1ccc(-c3ccccc3)cc1)CC2=O` (some centres undefined), for which the IC50 is 0.49 µM in assay [1] and “No inhibition” in assay [2].

For the molecule `COc1ccc(CNC(=O)[C@@H](CC(C)C)NC(=O)[C@H](CC(C)C)NC(=O)CC2CC(=O)c3ccc(OC)cc32)cc1` (some centres undefined), the concentration for half-maximal inhibition (IC50) was 0.71 µM in assay [1] and “No inhibition” in assay [2].

For `COc1ccc2c(c1)C(CC(=O)N[C@@H](CC(C)C)C(=O)N[C@H](CC(C)C)C(=O)NC(c1ccccc1)c1ccccc1)CC2=O` (some centres undefined), the figures for the 50% inhibitory concentration (IC50) in assay [1] and in assay [2] were more than 16 µM and “No inhibition”, respectively.

With `CCCC[C@@H](C=O)NC(=O)[C@H](CC(C)C)NC(=O)[C@H](CC(C)C)NC(C)=O` (Ac-Leu-Leu-[Nle]-aldehyde), the IC50 in assay [1] turned out to be 0.15 µM; in assay [5], 7 µM.

The record behind these values is ChEMBL document CHEMBL1131403, “Selective inhibition of the chymotrypsin-like activity of the 20S proteasome by 5-methoxy-1-indanone dipeptide benzamides” (Bioorg Med Chem Lett, 1998).
